Measured values from the supplement of paper PMC11208160.

Assay: recombinant UMI read abundance after kanamycin selection (control-corrected) (log10(CPM+1)); higher = more efficient recombination; extreme values may be limits of the assay; sequences stand for … in AGTGCAGAGAAAATCGGCCAGTTTTCTCTGCCTGCAGTCCGCATGCCGTGGGACCCCTTGGGTTCTAACCTGTTGCCTAGATTTATGCAGCGGACTGCCTTTCTCCCAAAGTGATAAACCGG…AGGTTGGTTTCACT; site = the 11-nt donor
How it was run: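 Under IPTG (0.07 mM) plus kanamycin, or without selection, Escherichia coli carrying a UMI-tagged donor and donor-binding-loop pair library and a target plasmid for the IS621 bridge recombinase were plated in two replicates. Recombinant UMIs were PCR-amplified across the donor–target junction and sequenced. Counts were converted to CPM, averaged over replicates, scaled by control-derived factors and reported as log10(CPM+1).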
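Also: IS621 bridge recombinase in Escherichia coli cells against a fixed T5 target plasmid.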

Sequence | recombinant UMI read abundance (log10)
GGGGCACCATGGACCGGTTTTCCCGGTAATCCGTATTTGCA (site CGGGCACCTTG) | 0
GGGGCACCATGGACCGGTTTTCCCGGTAATCCGTATTTGCA (site GAGGCACCTTG) | 0.00459
GGGGCACCATGGACCGGTTTTCCCGGTAATCCGTATTTGCA (site GCGGCACCTTG) | 0
GGGGCACCATGGACCGGTTTTCCCGGTAATCCGTATTTGCA (site GGAGCACCTTG) | 0
GGGGCACCATGGACCGGTTTTCCCGGTAATCCGTATTTGCA (site GGCGCACCTTG) | 0
GGGGCACCATGGACCGGTTTTCCCGGTAATCCGTATTTGCA (site GGGACACCTTG) | 0
GGGGCACCATGGACCGGTTTTCCCGGTAATCCGTATTTGCA (site GGGCCACCTTG) | 0.00389
GGGGCACCATGGACCGGTTTTCCCGGTAATCCGTATTTGCA (site GGGGAACCTTG) | 0
GGGGCACCATGGACCGGTTTTCCCGGTAATCCGTATTTGCA (site GGGGCAACTTG) | 0
GGGGCACCATGGACCGGTTTTCCCGGTAATCCGTATTTGCA (site GGGGCACCTAG) | 0.0125
GGGGCACCATGGACCGGTTTTCCCGGTAATCCGTATTTGCA (site GGGGCACCTCG) | 0.0103
GGGGCACCATGGACCGGTTTTCCCGGTAATCCGTATTTGCA (site GGGGCACCTGG) | 0
GGGGCACCATGGACCGGTTTTCCCGGTAATCCGTATTTGCA (site GGGGCACCTTA) | 0.011
GGGGCACCATGGACCGGTTTTCCCGGTAATCCGTATTTGCA (site GGGGCACCTTC) | 0.0181
GGGGCACCATGGACCGGTTTTCCCGGTAATCCGTATTTGCA (site GGGGCACCTTG) | 0
GGGGCACCATGGACCGGTTTTCCCGGTAATCCGTATTTGCA (site GGGGCACCTTT) | 0.0161
GGGGCACCATGGACCGGTTTTCCCGGTAATCCGTATTTGCA (site GGGGCAGCTTG) | 0
GGGGCACCATGGACCGGTTTTCCCGGTAATCCGTATTTGCA (site GGGGCATCTTG) | 0
GGGGCACCATGGACCGGTTTTCCCGGTAATCCGTATTTGCA (site GGGGCCCCTTG) | 0.0249

Sequence | recombinant UMI read abundance (log10)
GGGGCACCATGGACCGGTTTTCCCGGTAATCCGTATTTGCA (site GGGGCGCCTTG) | 0.0148
GGGGCACCATGGACCGGTTTTCCCGGTAATCCGTATTTGCA (site GGGGCTCCTTG) | 0
GGGGCACCATGGACCGGTTTTCCCGGTAATCCGTATTTGCA (site GGGGGACCTTG) | 0
GGGGCACCATGGACCGGTTTTCCCGGTAATCCGTATTTGCA (site GGGGTACCTTG) | 0
GGGGCACCATGGACCGGTTTTCCCGGTAATCCGTATTTGCA (site GGGTCACCTTG) | 0.0044
GGGGCACCATGGACCGGTTTTCCCGGTAATCCGTATTTGCA (site GGTGCACCTTG) | 0
GGGGCACCATGGACCGGTTTTCCCGGTAATCCGTATTTGCA (site GTGGCACCTTG) | 0.0102
GGGGCACCATGGACCGGTTTTCCCGGTAATCCGTATTTGCA (site TGGGCACCTTG) | 0.00982
GGGTCACCATGGACCGGTTTTCCCGGTAATCCGTATTTGCC (site GGGTCACCTGG) | 0
GGTAATCCATGGACCGGTTTTCCCGGTAATCCGTATTTGTT (site CGGAATCCTAA) | 0.0139
GGTAATCCATGGACCGGTTTTCCCGGTAATCCGTATTTGTT (site GGTAATCCTAA) | 0.518
GGTACACCATGGACCGGTTTTCCCGGTAATCCGTATTTGAC (site AGTACACCTGT) | 0
GGTACACCATGGACCGGTTTTCCCGGTAATCCGTATTTGAC (site CGTACACCTGT) | 0
GGTACACCATGGACCGGTTTTCCCGGTAATCCGTATTTGAC (site GGTACACCTGT) | 0
GGTACACCATGGACCGGTTTTCCCGGTAATCCGTATTTGAC (site TGTACACCTGT) | 0
GGTACCTCATGGACCGGTTTTCCCGGTAATCCGTATTTGAG (site GGTACCTCTCT) | 0.374
GGTACCTCATGGACCGGTTTTCCCGGTAATCCGTATTTGTT (site GGTACATCTAA) | 0.0159
GGTACCTCATGGACCGGTTTTCCCGGTAATCCGTATTTGTT (site GGTACCTCTAA) | 0.187
GGTACCTCATGGACCGGTTTTCCCGGTAATCCGTATTTGTT (site GGTACGTCTAA) | 0.014

Sequence | recombinant UMI read abundance (log10)
GGTACCTCATGGACCGGTTTTCCCGGTAATCCGTATTTGTT (site GGTACTTCTAA) | 0.00378
GGTAGAACATGGACCGGTTTTCCCGGTAATCCGTATTTGGC (site GATAGAACTGC) | 0
GGTAGAACATGGACCGGTTTTCCCGGTAATCCGTATTTGGC (site GCTAGAACTGC) | 0
GGTAGAACATGGACCGGTTTTCCCGGTAATCCGTATTTGGC (site GGTAGAACTGC) | 0.973
GGTAGAACATGGACCGGTTTTCCCGGTAATCCGTATTTGGC (site GTTAGAACTGC) | 0
GGTATACCATGGACCGGTTTTCCCGGTAATCCGTATTTGGT (site GGTATACCTAC) | 0.00474
GGTATTTCATGGACCGGTTTTCCCGGTAATCCGTATTTGCC (site GGTATTTCTGG) | 0
GGTCCACCATGGACCGGTTTTCCCGGTAATCCGTATTTGCT (site GGTCCACCTAG) | 0
GGTCGGACATGGACCGGTTTTCCCGGTAATCCGTATTTGCG (site GGTCGGACTCG) | 1.29
GGTCTGTCATGGACCGGTTTTCCCGGTAATCCGTATTTGAA (site GGTCTGTCTTT) | 0.0119
GGTCTTACATGGACCGGTTTTCCCGGTAATCCGTATTTGAG (site GGTCTTACTCT) | 0.0687
GGTGCACCATGGACCGGTTTTCCCGGTAATCCGTATTTGCA (site GGAGCACCTTG) | 0.00431
GGTGCACCATGGACCGGTTTTCCCGGTAATCCGTATTTGCA (site GGCGCACCTTG) | 0.0224
GGTGCACCATGGACCGGTTTTCCCGGTAATCCGTATTTGCA (site GGGGCACCTTG) | 0
GGTGCACCATGGACCGGTTTTCCCGGTAATCCGTATTTGCA (site GGTGCACCTTG) | 0
GGTGCGTCATGGACCGGTTTTCCCGGTAATCCGTATTTGTT (site GGTACGTCTAA) | 0.0157
GGTGCGTCATGGACCGGTTTTCCCGGTAATCCGTATTTGTT (site GGTCCGTCTAA) | 0.0208
GGTGCGTCATGGACCGGTTTTCCCGGTAATCCGTATTTGTT (site GGTGCGTCTAA) | 0.668
GGTGCGTCATGGACCGGTTTTCCCGGTAATCCGTATTTGTT (site GGTTCGTCTAA) | 0.0103
